Experimental data reported in ChEMBL document CHEMBL4354864, “Bicyclic α-Iminophosphonates as High Affinity Imidazoline I2 Receptor Ligands for Alzheimer's Disease” (J Med Chem, 2020).
≈ marks a conversion by molar mass, not a printed value. Calls of active or inactive are those of the source. The rule behind the calls is not given here.

Tests used:
[1] = biological target: Voltage-gated inwardly rectifying potassium channel KCNH2 (Homo sapiens, UniProt Q12809); test: Inhibition of recombinant human ERG expressed in CHO cells by patch clamp assay; format: cell-based
Chain of Voltage-gated inwardly rectifying potassium channel KCNH2 (Q12809 whole entry): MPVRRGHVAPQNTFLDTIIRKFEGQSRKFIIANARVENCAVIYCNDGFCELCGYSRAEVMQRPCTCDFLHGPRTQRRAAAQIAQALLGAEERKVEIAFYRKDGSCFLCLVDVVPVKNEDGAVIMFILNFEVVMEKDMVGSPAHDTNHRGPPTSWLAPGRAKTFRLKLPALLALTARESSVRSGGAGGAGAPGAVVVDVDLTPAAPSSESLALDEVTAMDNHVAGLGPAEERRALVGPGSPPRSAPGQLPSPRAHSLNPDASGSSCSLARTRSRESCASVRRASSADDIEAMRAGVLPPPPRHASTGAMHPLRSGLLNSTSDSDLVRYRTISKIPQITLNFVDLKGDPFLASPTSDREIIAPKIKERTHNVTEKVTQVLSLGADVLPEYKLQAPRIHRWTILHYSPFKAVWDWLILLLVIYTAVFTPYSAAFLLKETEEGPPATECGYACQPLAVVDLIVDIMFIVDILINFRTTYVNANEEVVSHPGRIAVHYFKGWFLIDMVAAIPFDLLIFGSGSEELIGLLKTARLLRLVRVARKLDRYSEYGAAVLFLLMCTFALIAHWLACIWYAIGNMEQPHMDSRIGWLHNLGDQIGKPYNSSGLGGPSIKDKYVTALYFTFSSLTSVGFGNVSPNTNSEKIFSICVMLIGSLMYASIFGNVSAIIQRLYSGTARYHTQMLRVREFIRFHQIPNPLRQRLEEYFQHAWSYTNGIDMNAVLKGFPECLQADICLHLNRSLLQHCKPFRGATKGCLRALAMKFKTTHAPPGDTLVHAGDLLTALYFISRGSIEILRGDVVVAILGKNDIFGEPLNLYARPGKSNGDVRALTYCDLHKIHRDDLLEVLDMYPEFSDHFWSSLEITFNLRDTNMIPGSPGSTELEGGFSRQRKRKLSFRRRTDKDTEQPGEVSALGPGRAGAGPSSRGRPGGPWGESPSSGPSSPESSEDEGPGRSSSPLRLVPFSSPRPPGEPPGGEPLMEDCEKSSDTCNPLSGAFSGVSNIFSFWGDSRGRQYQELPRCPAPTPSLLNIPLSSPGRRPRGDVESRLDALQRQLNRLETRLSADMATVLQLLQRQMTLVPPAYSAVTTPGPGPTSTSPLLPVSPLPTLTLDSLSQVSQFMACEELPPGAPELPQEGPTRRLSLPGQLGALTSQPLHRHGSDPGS

Mus musculus [2] = test: Antineuroinflammatory activity in mouse model of 5xFAD assessed as reduction in Cxcl10 expression at 5 mg/kg, po administered for 4 weeks by qRT-PCR analysis; format: functional, organism-based
[3] = Stability in rat liver microsomes at 5 uM incubated for 60 mins by UPLC-MS/MS analysis; format: ADME, Microsome; settings: 1 h
[4] = biological target: T1, Cholecystokinin receptor type A (Homo sapiens, UniProt P32238); test: Displacement of [125I]CCK-8s from human CCKA incubated for 60 mins by scintillation counting method
T1 sequence (P32238 whole entry): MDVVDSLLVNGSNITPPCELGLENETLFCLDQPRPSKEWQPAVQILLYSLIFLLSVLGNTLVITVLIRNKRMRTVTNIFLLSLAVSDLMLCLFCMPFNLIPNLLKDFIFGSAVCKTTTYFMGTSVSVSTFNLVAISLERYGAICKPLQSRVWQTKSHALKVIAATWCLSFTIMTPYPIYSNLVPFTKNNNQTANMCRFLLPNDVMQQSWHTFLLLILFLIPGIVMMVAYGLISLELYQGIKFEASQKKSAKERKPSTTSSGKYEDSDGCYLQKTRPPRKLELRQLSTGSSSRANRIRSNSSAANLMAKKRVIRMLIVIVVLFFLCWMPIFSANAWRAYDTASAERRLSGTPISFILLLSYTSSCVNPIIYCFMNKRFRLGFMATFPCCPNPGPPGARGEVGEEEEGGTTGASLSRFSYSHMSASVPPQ

Mus musculus [5] = test: Antineuroinflammatory activity in mouse model of 5xFAD assessed as reduction in TNFalpha expression at 5 mg/kg, po administered for 4 weeks by qRT-PCR analysis; format: functional, organism-based
[6] = Solubility of compound in 99% PBS buffer incubated for 2 hrs by nephelometry; format: physicochemical
[7] = Stability in human liver microsomes at 5 uM incubated for 60 mins by UPLC-MS/MS analysis; format: ADME, Microsome; settings: 1 h
Mus musculus [8] = test: Antineuroinflammatory activity in mouse model of 5xFAD assessed as reduction in sAPPbeta expression at 5 mg/kg, po administered for 4 weeks by Western blot analysis; format: functional, organism-based
HeLa = test: Cytotoxicity against human HeLa cells assessed as reduction in cell viability at 100 uM incubated for 3 to 5 days by colorimetric analysis; format: cell-based
Cytochrome P450 2C9 = Cytochrome P450 2C9 (Homo sapiens, UniProt P11712); test: Inhibition of recombinant human CYP2C9 at 10 uM using 7-methoxy-4-(trifluoromethyl)coumarin as substrate incubated for 5 mins followed by substrate addition by fluorescence based assay; format: ADME; settings: recombinant enzyme
Chain of Cytochrome P450 2C9 (P11712 whole entry): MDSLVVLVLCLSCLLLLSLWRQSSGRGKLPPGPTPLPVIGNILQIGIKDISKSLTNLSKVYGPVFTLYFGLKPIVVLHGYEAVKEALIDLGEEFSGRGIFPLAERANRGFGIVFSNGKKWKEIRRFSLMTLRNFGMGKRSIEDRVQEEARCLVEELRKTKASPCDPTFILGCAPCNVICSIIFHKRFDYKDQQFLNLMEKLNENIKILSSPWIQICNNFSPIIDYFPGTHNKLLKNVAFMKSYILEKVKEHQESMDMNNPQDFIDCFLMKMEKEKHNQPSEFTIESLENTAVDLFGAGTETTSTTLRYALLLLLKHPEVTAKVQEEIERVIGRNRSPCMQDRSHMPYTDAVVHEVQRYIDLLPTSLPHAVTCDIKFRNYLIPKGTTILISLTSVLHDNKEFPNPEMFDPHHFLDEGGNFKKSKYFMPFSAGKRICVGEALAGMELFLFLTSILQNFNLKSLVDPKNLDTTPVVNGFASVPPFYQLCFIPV

Mus musculus [9] = test: Cognitive enhancing effect in mouse model of 5xFAD assessed as increase in recognition memory at 5 mg/kg, po administered for 28 days and measured after 24 hrs of last dosage by novel object recognition test; format: functional, organism-based
Mus musculus [10] = test: Effect on FADD in CD-1 mouse at 20 mg/kg, ip measured after 1 hr by Westernblot analysis; format: functional

With `CCOP(=O)(OCC)C1(c2ccccc2)N=CC2C(=O)N(c3ccc(F)c(Cl)c3)C(=O)C21` (racemic) the “inhibition (INH)” value [1] was “Not Active”, the Activity (Mus musculus [2]) was “Active” and the Stability [3] was “Stable”. The IC50 [4] was 5.94 µM, the Activity (Mus musculus [5]) was “Active” and the solubility kinetic at 2 h [6] was 92 µM (≈ 44.1 µg/mL). The Stability [7] was “Stable”, the Activity (Mus musculus [8]) was “Active” and the Activity (HeLa) was “Non-Toxic”. The “inhibition (INH)” value (Cytochrome P450 2C9) was “Not Active”, the Activity (Mus musculus [9]) was “Active” and the Activity (Mus musculus [10]) was -30%.
